According to article PMC3056285 (Bioorganic & medicinal chemistry, 2011):

Assays:
[1] = Biodistribution of [^11C]MP-10 in rats; type: in vivo, Sprague-Dawley rats; settings: male rats, tail vein injection
PDE10A = assay: MicroPET imaging studies in rhesus monkeys; type: in vivo; settings: male rhesus monkeys
[2] = In vivo metabolite analysis in rat brain; design: species or system Sprague-Dawley rats; settings: HPLC radioactivity
[3] = In vivo metabolite analysis in rat plasma; design: species or system Sprague-Dawley rats; settings: HPLC radioactivity
[4] = 2 min post injection of [^11C]MP-10
[5] = 20 min post injection of [^11C]MP-10
[6] = 40 min post injection of [^11C]MP-10
[7] = 60 min post injection of [^11C]MP-10

[11CH3]n1cc(-c2ccncc2)c(-c2ccc(OCc3ccc4ccccc4n3)cc2)n1 [[^11C]MP-10, 2-((4-(1-[^11C]methyl-4-(pyridin-4-yl)-1H-pyrazol-3-yl)phenoxy)methyl)-quinoline]
Biodistribution Blood ([1]; 5 min): 0.123 ± 0.033 ID%/gram | Biodistribution Cerebellum ([1]; 5 min): 0.133 ± 0.023 ID%/gram | Biodistribution Cortex ([1]; 5 min): 0.133 ± 0.025 ID%/gram | Biodistribution Fat ([1]; 5 min): 0.124 ± 0.059 ID%/gram | Biodistribution Heart ([1]; 5 min): 0.264 ± 0.080 ID%/gram | Biodistribution Hippocampus ([1]; 5 min): 0.169 ± 0.049 ID%/gram | Biodistribution Liver ([1]; 5 min): 2.766 ± 0.350 ID%/gram | Biodistribution Lung ([1]; 5 min): 0.317 ± 0.037 ID%/gram | Biodistribution Muscle ([1]; 5 min): 0.093 ± 0.021 ID%/gram | Biodistribution Striatum ([1]; 5 min): 0.300 ± 0.094 ID%/gram | Biodistribution Testes ([1]; 5 min): 0.160 ± 0.048 ID%/gram | Biodistribution Total brain ([1]; 5 min): 0.162 ± 0.025 ID%/gram | Biodistribution Blood ([1]; 30 min): 0.065 ± 0.016 ID%/gram | Biodistribution Cerebellum ([1]; 30 min): 0.036 ± 0.003 ID%/gram | Biodistribution Cortex ([1]; 30 min): 0.044 ± 0.009 ID%/gram | Biodistribution Fat ([1]; 30 min): 0.075 ± 0.020 ID%/gram | Biodistribution Heart ([1]; 30 min): 0.102 ± 0.041 ID%/gram | Biodistribution Hippocampus ([1]; 30 min): 0.050 ± 0.010 ID%/gram | Biodistribution Kidney ([1]; 30 min): 0.366 ± 0.075 ID%/gram | Biodistribution Liver ([1]; 30 min): 3.395 ± 0.448 ID%/gram | Biodistribution Lung ([1]; 30 min): 0.155 ± 0.053 ID%/gram | Biodistribution Muscle ([1]; 30 min): 0.059 ± 0.010 ID%/gram | Biodistribution Striatum ([1]; 30 min): 0.236 ± 0.035 ID%/gram | Biodistribution Testes ([1]; 30 min): 0.098 ± 0.006 ID%/gram | Biodistribution Total brain ([1]; 30 min): 0.066 ± 0.008 ID%/gram | Biodistribution Blood ([1]; 60 min): 0.047 ± 0.012 ID%/gram | Biodistribution Cerebellum ([1]; 60 min): 0.035 ± 0.003 ID%/gram | Biodistribution Cortex ([1]; 60 min): 0.044 ± 0.014 ID%/gram | Biodistribution Fat ([1]; 60 min): 0.100 ± 0.013 ID%/gram | Biodistribution Heart ([1]; 60 min): 0.068 ± 0.023 ID%/gram | Biodistribution Hippocampus ([1]; 60 min): 0.051 ± 0.009 ID%/gram | Biodistribution Kidney ([1]; 60 min): 0.314 ± 0.060 ID%/gram | Biodistribution Liver ([1]; 60 min): 3.364 ± 0.613 ID%/gram | Biodistribution Lung ([1]; 60 min): 0.090 ± 0.012 ID%/gram | Biodistribution Muscle ([1]; 60 min): 0.039 ± 0.011 ID%/gram | Biodistribution Striatum ([1]; 60 min): 0.164 ± 0.036 ID%/gram | Biodistribution Testes ([1]; 60 min): 0.068 ± 0.021 ID%/gram | Biodistribution Total brain ([1]; 60 min): 0.056 ± 0.006 ID%/gram | blood brain barrier penetration (PDE10A): can readily penetrate the blood brain barrier

[11CH3]n1cc(-c2ccncc2)c(-c2ccc(O)cc2)n1 [metabolite #1, 4-(1-[^11C]methyl-4-(pyridin-4-yl)-1H-pyrazol-3-yl)phenol]
% Peak #1, Brain Tissue [2, 4]: 1.03% | % Peak #1, Brain Tissue [2, 5]: 3.45% | % Peak #1, Brain Tissue [2, 6]: 11.47% | % Peak #1, Brain Tissue [2, 7]: 15.87% | % Peak #1, Plasma [3, 4]: 1.23% | % Peak #1, Plasma [3, 5]: 19.13% | % Peak #1, Plasma [3, 6]: 35.19% | % Peak #1, Plasma [3, 7]: 40.72%
